Laboratory results: patent US20220339243A1, “COMPOSITIONS AND SYNERGISTIC METHODS FOR TREATING INFECTIONS” (BioAegis Therapeutics Inc., priority 2019, published 2022)
Converted amounts (≈) assume the structure as drawn. One block for each compound: values may come before it.

Experiments:
[1] = system: P. aeruginosa UNC-D; test: Multidrug-resistant P. aeruginosa pneumonia in neutropenic BALB/c mice; assay type: in vivo
[2] = system: P. aeruginosa UNC-D; test: Minimum inhibitory concentrations of the UNC-D strain; assay type: cell-based; conditions: for MIC: Pseudomonas aeruginosa, read-out: Minimum inhibitory concentration
Method: P. aeruginosa UNC-D is a sputum isolate from a patient with cystic fibrosis. [Lawrenz M B, et al. Pathog. Dis. 73 (2015)]. Bacteria were cultured on trypticase soy agar (TSA) plates and in Lennox broth at 37° C. with shaking of broth cultures. […] Bacteria were prepared for animal challenge studies by culturing bacteria in Lennox broth overnight and washing the bacteria into 1×PBS before diluting to a final concentration based on OD600-based estimates and a final 50 μl delivery dose. Bacterial inocula were confirmed by serial dilution and colony enumeration on TSA plates.

[3] = system: Streptococcus pneumoniae type 3; test: Antibiotic-sensitive pneumococcal pneumonia, CD1 mice, delayed treatment; assay type: in vivo; conditions: PEN 100 μg i.m. on days 2 and 3 after infection; FIG. 3B
[4] = system: Streptococcus pneumoniae type 14; conditions: cited from earlier work
[5] = system: Streptococcus pneumoniae type 14; test: In vitro bacterial growth, 1 h culture; assay type: cell-based; conditions: PEN 16 μg/ml, pGSN 250 μg/ml, average of 2 replicates
[6] = system: Streptococcus pneumoniae type 14; test: Antibiotic-resistant pneumococcal pneumonia, CD1 mice, delayed treatment; assay type: in vivo
[7] = system: S. pneumoniae isolates; conditions: pediatric population; Cai et al. 2018; cited from earlier work

Compound: C[C@@H](O)[C@H]1C(=O)N2C(C(=O)O)=C(S[C@@H]3CN[C@H](C(=O)N(C)C)C3)[C@H](C)[C@H]12 [meropenem]
survival in each of experiments 1 and 2 ([1]; 1250 mg/kg/day of meropenem): ≤ 50%
mean pathology score (lung, maximum 16) ([1]; 1250 mg/kg/day, two independent studies combined, FIG. 9C, p=0.0049): 6.86
near-normal lung histopathology, surviving mice as the denominator ([1]; 26/35 vs 38/46): 74.3%
overall survival, all dosing groups in the 3 experiments combined ([1]; 35/64 without and 46/64 with rhu-pGSN): 55%
overall survival with minor lung injury (pathology scores ≤2) ([1]; all meropenem doses, three experiments, 26/64 vs 38/64, FIG. 10): 41%
spread to spleen / splenic counts ([1]; both studies, combined data, pGSN given with meropenem): controlled spread from lung to spleen
survival, third experiment ([1]; different lot of meropenem, meropenem only group): 75%
survival with near-normal lungs, control survival rate between 25% and 75% ([1]; exploratory post-hoc analysis, 12/32 vs 27/32): 37.5%
survival for 7 days, two sequential studies combined ([1]; meropenem 1250 mg/kg/day s.c. q8h 5 days, rhu-pGSN 12 mg/day i.p. days -1 to +5, FIG. 7C): 31%
time to restoration of body temperature to 95° F. in survivors ([1]; two studies with survival advantage, FIG. 11): 3-5 days post-infection
MIC [2]: 8 µg/mL (≈ 20.9 µM)

MIC [2]: 16 µg/mL (≈ 30.9 µM)
Compound: CCN1CCN(C(=O)N[C@@H](C(=O)N[C@@H]2C(=O)N3[C@@H]2SC(C)(C)[C@@H]3C(=O)O)c2ccccc2)C(=O)C1=O [piperacillin]

Compound: penicillin
survival [3]: 100%
minimum inhibitory concentration (MIC) [4]: 8 µg/mL
increase in bacterial CFU [5]: 105000 CFU
total lavage neutrophils ([6]; lung lavage 48 hours after infection, single dose, n=5-6/group): 153±74 ×10E4
survival (final four experiments) ([6]; treatment from 24 h after infection, daily for 9 days, pGSN 5 mg i.p., PEN 1 mg i.m., FIG. 4A): no benefit

MIC [2]: 16 µg/mL (≈ 53.4 µM)
Compound: C[C@@H](O)[C@H]1C(=O)N2C(C(=O)O)=C(SCCN=CN)C[C@H]12 [imipenem]

Compound: trimethoprim-sulfamethoxazole
resistance of S. pneumoniae isolates from invasive infections [7]: 79%

Compound: colistin
Minimum inhibitory concentration [2]: 1 µg/mL

MIC [2]: 32 µg/mL (≈ 58.5 µM)
Compound: CC(C)(O/N=C(\C(=O)N[C@@H]1C(=O)N2C(C(=O)[O-])=C(C[n+]3ccccc3)CS[C@H]12)c1csc(N)n1)C(=O)O [ceftazidime]

Compound: CC[C@H]1OC(=O)[C@H](C)[C@@H](O[C@H]2C[C@@](C)(OC)[C@@H](O)[C@H](C)O2)[C@H](C)[C@@H](O[C@@H]2O[C@H](C)C[C@H](N(C)C)[C@H]2O)[C@](C)(O)C[C@@H](C)C(=O)[C@H](C)[C@@H](O)[C@]1(C)O [erythromycin]
resistance of S. pneumoniae isolates from invasive infections [7]: 96%

MIC [2]: 32 µg/mL (≈ 68.4 µM)
Compound: NC[C@H]1O[C@H](O[C@H]2[C@H](O)[C@@H](O[C@H]3O[C@H](CO)[C@@H](O)[C@H](N)[C@H]3O)[C@H](N)C[C@@H]2N)[C@H](N)C[C@@H]1O [tobramycin]

MIC [2]: 256 µg/mL (≈ 1850 µM)
Compound: C[C@@H]1O[C@@H]1P(=O)(O)O [fosfomycin]

MIC [2]: 4 µg/mL (≈ 9.19 µM)
Compound: C[C@H]1[C@H](NC(=O)/C(=N\OC(C)(C)C(=O)O)c2csc(N)n2)C(=O)N1S(=O)(=O)O [aztreonam]
